According to ChEMBL document CHEMBL1148637, “The combi-targeting concept: synthesis of stable nitrosoureas designed to inhibit the epidermal growth factor receptor (EGFR)” (J Med Chem, 2006):

Assays:
NIH3T3 = test: Inhibition of serum-stimulated proliferation of mouse NIH3T3 cell line after 24 hrs; format: functional, cell-based; conditions: NIH3T3, 24 h
[1] = target: Epidermal growth factor receptor (Homo sapiens, UniProt P00533); test: Inhibition of EGFR tyrosine kinase
Epidermal growth factor receptor, sequence (P00533 whole entry): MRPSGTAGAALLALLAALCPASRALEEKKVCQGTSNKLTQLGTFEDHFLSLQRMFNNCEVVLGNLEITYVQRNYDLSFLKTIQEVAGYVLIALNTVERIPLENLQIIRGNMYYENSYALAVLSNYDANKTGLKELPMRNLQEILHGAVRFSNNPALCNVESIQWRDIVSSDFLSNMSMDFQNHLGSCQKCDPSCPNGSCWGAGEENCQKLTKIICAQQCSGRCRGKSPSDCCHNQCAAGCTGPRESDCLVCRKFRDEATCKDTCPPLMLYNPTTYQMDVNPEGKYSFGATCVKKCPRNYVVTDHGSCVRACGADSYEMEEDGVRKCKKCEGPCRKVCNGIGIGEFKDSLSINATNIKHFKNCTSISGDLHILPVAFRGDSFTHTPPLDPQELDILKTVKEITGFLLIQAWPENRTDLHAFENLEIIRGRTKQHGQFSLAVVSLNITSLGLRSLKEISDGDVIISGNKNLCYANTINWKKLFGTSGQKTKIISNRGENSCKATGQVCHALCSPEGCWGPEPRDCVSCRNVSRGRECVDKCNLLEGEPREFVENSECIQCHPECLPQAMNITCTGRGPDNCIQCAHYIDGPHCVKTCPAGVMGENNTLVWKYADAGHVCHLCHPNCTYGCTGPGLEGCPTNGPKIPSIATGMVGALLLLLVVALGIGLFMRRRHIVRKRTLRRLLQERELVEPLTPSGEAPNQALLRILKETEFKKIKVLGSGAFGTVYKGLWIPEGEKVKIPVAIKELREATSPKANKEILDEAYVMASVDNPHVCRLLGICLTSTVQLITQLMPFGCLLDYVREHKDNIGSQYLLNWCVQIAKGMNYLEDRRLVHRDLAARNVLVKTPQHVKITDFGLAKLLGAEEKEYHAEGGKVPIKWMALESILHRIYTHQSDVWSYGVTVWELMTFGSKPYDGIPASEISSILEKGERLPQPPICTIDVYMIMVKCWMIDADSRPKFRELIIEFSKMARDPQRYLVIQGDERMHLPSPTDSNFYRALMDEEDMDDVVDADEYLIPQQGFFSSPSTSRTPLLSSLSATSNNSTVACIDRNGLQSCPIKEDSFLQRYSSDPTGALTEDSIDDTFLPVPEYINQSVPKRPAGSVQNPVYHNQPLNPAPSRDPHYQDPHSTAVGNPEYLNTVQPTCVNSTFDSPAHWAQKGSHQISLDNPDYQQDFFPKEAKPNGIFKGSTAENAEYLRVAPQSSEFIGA

Compound	IC50 (NIH3T3)	IC50 [1]
CNc1ccc2ncnc(Nc3cccc(Br)c3)c2c1	17.6 µM	0.005 µM
O=C(NCCCl)Nc1ccc2ncnc(Nc3cccc(Br)c3)c2c1	35.9 µM	0.018 µM
Cc1cccc(Nc2ncnc3ccc(N)cc23)c1	44.2 µM	–
CNc1ccc2ncnc(Nc3cccc(Cl)c3)c2c1	49.8 µM	0.004 µM
Cc1cccc(Nc2ncnc3ccc(NC(=O)NCCCl)cc23)c1	31 µM	0.676 µM
Cc1cccc(Nc2ncnc3ccc(N(C)C(=O)N(CCCl)N=O)cc23)c1	16.5 µM	–
O=NN(CCCl)C(=O)Nc1ccc2ncnc(Nc3cccc(Br)c3)c2c1	36.4 µM	0.047 µM
CN(C(=O)N(CCCl)N=O)c1ccc2ncnc(Nc3cccc(Cl)c3)c2c1	11.7 µM	0.204 µM
CNc1ccc2ncnc(Nc3cccc(C)c3)c2c1	42.8 µM	0.011 µM
Nc1ccc2ncnc(Nc3cccc(Cl)c3)c2c1	97 µM	–
CN(C(=O)N(CCCl)N=O)c1ccc2ncnc(Nc3cccc(Br)c3)c2c1	10.8 µM	0.294 µM
Nc1ccc2ncnc(Nc3cccc(Br)c3)c2c1	26.7 µM	–
Cc1cccc(Nc2ncnc3ccc(NC(=O)N(CCCl)N=O)cc23)c1	78.5 µM	1.06 µM
O=NN(CCCl)C(=O)Nc1ccc2ncnc(Nc3cccc(Cl)c3)c2c1	157 µM	–
O=C(NCCCl)Nc1ccc2ncnc(Nc3cccc(Cl)c3)c2c1	157 µM	0.022 µM
